Several values for one entry are separate records, joined by “and”; a condition that tells them apart may be missing. Equal entries are not always repeated. Toxic doses and inconclusive results are not listed. How the source made its calls: active means survival T/C of 150% or more; inactive means T/C below 125% in these data.
Tested on: P388 leukemia ip, CD2F1 mice, survival T/C
Assay: NCI In Vivo Anticancer Drug Screen. Data for tumor model P388 Leukemia (intraperitoneal) in CD2F1 (CDF1) mice
Conditions: endpoint: median survival time, higher = longer survival
Procedure, shortened: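 Mice carrying the transplanted tumor received test compound or vehicle. Survival was recorded in each group, and the value is the treated-group measurement divided by that of the vehicle-treated control group.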

[1] = dose: 50.0 mg/kg/injection, schedule: Q01DX009 (ip), vehicle: saline
[2] = dose: 100.0 mg/kg/injection, schedule: Q01DX009 (ip), vehicle: saline
[3] = dose: 200.0 mg/kg/injection, schedule: Q01DX009 (ip), vehicle: saline
[4] = dose: 60.0 mg/kg/injection, schedule: Q01DX005 (ip), vehicle: Klucel (hydroxypropylcellulose) (HPC)
[5] = dose: 50.0 mg/kg/injection, schedule: Q01DX009 (ip), vehicle: saline with Tween-80
[6] = dose: 60.0 mg/kg/injection, schedule: Q01DX005 (ip), vehicle: saline with Tween-80
[7] = dose: 120.0 mg/kg/injection, schedule: Q01DX005 (ip), vehicle: saline with Tween-80
[8] = dose: 240.0 mg/kg/injection, schedule: Q01DX005 (ip), vehicle: saline with Tween-80
[9] = dose: 50.0 mg/kg/injection, schedule: Q01DX005 (ip), vehicle: saline with Tween-80
[10] = dose: 100.0 mg/kg/injection, schedule: Q01DX005 (ip), vehicle: saline with Tween-80
[11] = dose: 200.0 mg/kg/injection, schedule: Q01DX005 (ip), vehicle: saline with Tween-80
[12] = dose: 50.0 mg/kg/injection, schedule: Q01DX005 (ip), vehicle: Klucel (hydroxypropylcellulose) (HPC)
[13] = dose: 100.0 mg/kg/injection, schedule: Q01DX005 (ip), vehicle: Klucel (hydroxypropylcellulose) (HPC)
[14] = dose: 3.12 mg/kg/injection, schedule: Q01DX005 (ip), vehicle: Klucel (hydroxypropylcellulose) (HPC)
[15] = dose: 6.25 mg/kg/injection, schedule: Q01DX005 (ip), vehicle: Klucel (hydroxypropylcellulose) (HPC)
[16] = dose: 12.5 mg/kg/injection, schedule: Q01DX005 (ip), vehicle: Klucel (hydroxypropylcellulose) (HPC)
[17] = dose: 25.0 mg/kg/injection, schedule: Q01DX005 (ip), vehicle: Klucel (hydroxypropylcellulose) (HPC)

Measured: T/C

CCOC(=O)[C]1([Hg][CH3])N=NC(C(=O)OC)=C1C(=O)OC (stereo unspecified)
inactive: dose: 1.56 mg/kg/injection, schedule: Q01DX009 (ip), vehicle: saline 90 % of control | dose: 3.12 mg/kg/injection, schedule: Q01DX009 (ip), vehicle: saline 93 % of control | dose: 6.25 mg/kg/injection, schedule: Q01DX009 (ip), vehicle: saline 90 % of control | dose: 12.5 mg/kg/injection, schedule: Q01DX009 (ip), vehicle: saline 93 % of control

Cc1ccc(Nc2n[nH]c(=S)s2)cc1C
inactive: dose: 100.0 mg/kg/injection, schedule: Q04DX003 (ip), vehicle: saline with Tween-80 90 % of control | dose: 200.0 mg/kg/injection, schedule: Q04DX003 (ip), vehicle: saline with Tween-80 90 % of control | dose: 400.0 mg/kg/injection, schedule: Q04DX003 (ip), vehicle: saline with Tween-80 95 % of control

Cc1ccc(S(=O)(=O)N/N=c2\ccc3ccccc3n2C)cc1
inactive: dose: 100.0 mg/kg/injection, schedule: Q04DX002 (ip), vehicle: saline 100 % of control | dose: 200.0 mg/kg/injection, schedule: Q04DX002 (ip), vehicle: saline 99 % of control | dose: 400.0 mg/kg/injection, schedule: Q04DX002 (ip), vehicle: saline 101 % of control

Cc1nc2sccn2c1C=O
inactive: dose: 12.5 mg/kg/injection, schedule: Q01DX009 (ip), vehicle: Klucel (hydroxypropylcellulose) (HPC) 109 % of control | dose: 25.0 mg/kg/injection, schedule: Q01DX009 (ip), vehicle: Klucel (hydroxypropylcellulose) (HPC) 114 % of control | dose: 50.0 mg/kg/injection, schedule: Q01DX009 (ip), vehicle: Klucel (hydroxypropylcellulose) (HPC) 114 % of control | dose: 100.0 mg/kg/injection, schedule: Q01DX001 (ip), vehicle: Klucel (hydroxypropylcellulose) (HPC) 97 % of control

O=C1c2cccc(O)c2C(=O)c2c(OC3OC(CO)C(O)C(O)C3O)cccc21 (stereo unspecified)
inactive: [1] 94 % of control | [2] 93 % of control | [3] 88 % of control

CCc1nc(N)nc(N)c1-c1ccc(N(C)C)c(N=[N+]=[N-])c1
inactive: dose: 15.0 mg/kg/injection, schedule: Q01DX005 (ip), vehicle: Klucel (hydroxypropylcellulose) (HPC) 96 % of control | dose: 30.0 mg/kg/injection, schedule: Q01DX005 (ip), vehicle: Klucel (hydroxypropylcellulose) (HPC) 92 % of control | [4] 105 % of control and 113 % of control

CC12CCCCC1=Nc1ccc3ccccc3c12 (stereo unspecified)
inactive: dose: 12.5 mg/kg/injection, schedule: Q01DX009 (ip), vehicle: saline with Tween-80 92 % of control | dose: 25.0 mg/kg/injection, schedule: Q01DX009 (ip), vehicle: saline with Tween-80 90 % of control | [5] 92 % of control

C/C(CC(N)=O)=C1\C(=O)NN(c2ccccc2)C1=O
inactive: [6] 108 % of control | [7] 110 % of control | [8] 114 % of control

CC1[C@@H]2CC=C3[C@H]4CCC5Cc6nc7c(nc6C[C@@]5(C)C4(O)CC(=O)[C@]32CO[C@]12OC(C)(C)CC2O)CC1CC[C@@H]2C3=C[C@H]4O[C@@]5(O[C@@](C)(CO)C[C@@H]5O)C(C)[C@@]4(O)[C@]3(C)[C@@H](O)CC2[C@]1(C)C7 (stereo partly specified)
inactive: dose: 10.0 micrograms/kg/injection, schedule: Q01DX005 (ip), vehicle: saline + alcohol 114 % of control and 117 % of control | dose: 20.0 micrograms/kg/injection, schedule: Q01DX005 (ip), vehicle: saline + alcohol 121 % of control

CN1C(=O)Cn2c(nn(CCN3CCOCC3)c(=O)c2=O)-c2cc(Cl)ccc21
inactive: [1] 99 % of control | [2] 102 % of control | [3] 105 % of control

O=C1c2ccccc2C(=O)N1c1ccc(Nc2nc(Nc3ccc(N4C(=O)c5ccccc5C4=O)cc3)nc(N(C3CCCCC3)C3CCCCC3)n2)cc1
inactive: [9] 94 % of control | [10] 87 % of control

COc1ccc(C(C)c2cc3c(cc2OCCO)OCO3)cc1 (stereo unspecified)
inactive: [9] 105 % of control | [10] 102 % of control | [11] 105 % of control

CC(C)(C)/C=C/N1N=NC(c2ccccc2)(c2ccccc2)C1=O
inactive: [12] 91 % of control | [13] 92 % of control | dose: 200.0 mg/kg/injection, schedule: Q01DX005 (ip), vehicle: Klucel (hydroxypropylcellulose) (HPC) 96 % of control

CN(C)CCCN1C(=O)C2CCC(C)(C1=O)C2(C)C (stereo unspecified)
inactive: [9] 100 % of control | [10] 101 % of control

CC(C)=CCCC(=O)Cc1nc2nnc(N)n2nc1CC(=O)CCC=C(C)C
inactive: dose: 60.0 mg/kg/injection, schedule: Q01DX005 (ip), vehicle: saline 100 % of control | dose: 120.0 mg/kg/injection, schedule: Q01DX005 (ip), vehicle: saline 98 % of control | dose: 240.0 mg/kg/injection, schedule: Q01DX005 (ip), vehicle: saline 104 % of control

CCCC[P+](c1ccccc1)(c1ccccc1)c1ccccc1
inactive: dose: 5.0 mg/kg/injection, schedule: Q01DX009 (ip), vehicle: saline sonified 118 % of control | dose: 10.0 mg/kg/injection, schedule: Q01DX009 (ip), vehicle: saline sonified 122 % of control | dose: 13.2 mg/kg/injection, schedule: Q01DX009 (ip), vehicle: saline sonified 118 % of control | dose: 20.0 mg/kg/injection, schedule: Q01DX009 (ip), vehicle: saline sonified 118 % of control | dose: 30.0 mg/kg/injection, schedule: Q01DX009 (ip), vehicle: saline sonified 90 % of control

CC(=O)NC(Cc1c[nH]c2ccccc12)C(=O)Oc1ccc([N+](=O)[O-])cc1 (stereo unspecified)
inactive: [1] 95 % of control | [2] 98 % of control | [3] 92 % of control

Cc1c(Br)sc2c1ccc1ccccc12
inactive: [5] 101 % of control | dose: 100.0 mg/kg/injection, schedule: Q01DX009 (ip), vehicle: saline with Tween-80 100 % of control | dose: 200.0 mg/kg/injection, schedule: Q01DX009 (ip), vehicle: saline with Tween-80 109 % of control

O=C(Nc1ccccc1)OC(CS(=O)(=O)c1ccccc1)C(Cl)(Cl)Cl (stereo unspecified)
inactive: [9] 92 % of control | [10] 96 % of control | [11] 95 % of control

CC(C)(C)OC(=O)NCCCCC(NC(=O)OCC1c2ccccc2-c2ccccc21)C(=O)O (stereo unspecified)
inactive: [12] 109 % of control | [13] 93 % of control

CC[PH+](CC)CC.[Cl][Au]
inactive: dose: 1.25 mg/kg/injection, schedule: Q01DX009 (ip), vehicle: Klucel (hydroxypropylcellulose) (HPC) 100 % of control | dose: 2.5 mg/kg/injection, schedule: Q01DX009 (ip), vehicle: Klucel (hydroxypropylcellulose) (HPC) 99 % of control and 121 % of control | dose: 5.0 mg/kg/injection, schedule: Q01DX009 (ip), vehicle: Klucel (hydroxypropylcellulose) (HPC) 114 % of control (2×) and 123 % of control | dose: 10.0 mg/kg/injection, schedule: Q01DX009 (ip), vehicle: Klucel (hydroxypropylcellulose) (HPC) 124 % of control

O=C(CC1(O)C(=O)Nc2ccccc21)c1cccc2ccccc12 (stereo unspecified)
inactive: [6] 110 % of control | [7] 113 % of control | [8] 103 % of control

CCCC1(c2ccccc2)C(=O)NCNC1=O
inactive: dose: 20.0 mg/kg/injection, schedule: Q01DX005 (ip), vehicle: Klucel (hydroxypropylcellulose) (HPC) 100 % of control | dose: 40.0 mg/kg/injection, schedule: Q01DX005 (ip), vehicle: Klucel (hydroxypropylcellulose) (HPC) 99 % of control and 109 % of control | [4] 100 % of control and 116 % of control | dose: 120.0 mg/kg/injection, schedule: Q01DX005 (ip), vehicle: Klucel (hydroxypropylcellulose) (HPC) 93 % of control and 95 % of control | dose: 240.0 mg/kg/injection, schedule: Q01DX005 (ip), vehicle: Klucel (hydroxypropylcellulose) (HPC) 92 % of control

COc1cc[c]([Sn]([O][Sn]([Cl])([c]2ccc(OC)cc2)[c]2ccc(OC)cc2)[c]2ccc(OC)cc2)cc1
inactive: [14] 97 % of control | [15] 116 % of control and 92 % of control | [16] 111 % of control | [17] 120 % of control

CCN(CC)CCCCNC(=O)c1noc2cc([N+](=O)[O-])ccc12
inactive: [14] 100 % of control | [15] 99 % of control and 105 % of control | [16] 103 % of control and 97 % of control | [17] 103 % of control and 122 % of control and 96 % of control

COC1OC(COS(C)(=O)=O)C(O)C(O)C1OS(C)(=O)=O (stereo unspecified)
inactive: [1] 110 % of control | [2] 106 % of control | [3] 106 % of control

O=C1C(Cl)=C(Nc2cccc3cc4ccccc4nc23)C(=O)c2ccccc21
inactive: dose: 5.0 mg/kg/injection, schedule: Q01DX009 (ip), vehicle: saline 104 % of control and 112 % of control | dose: 10.0 mg/kg/injection, schedule: Q01DX009 (ip), vehicle: saline 113 % of control and 114 % of control | dose: 20.0 mg/kg/injection, schedule: Q01DX009 (ip), vehicle: saline 104 % of control
